The IC50 is the concentration at which inhibition is half-maximal.

This passage reports IC50 results from PubChem BioAssay AID486 (Columbia University Molecular Screening Center, 2006).

Structures are written as SMILES. The source made the active and inactive calls.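 The calls were made as follows: active = ranking score of 15 or more out of 100, based on fitted potency or summed per-dose inhibition deviations; inactive = the rest.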

The subject of this assay is exon1htt(103Q)-mCFP cells, aggregate imaging, high-content. The assay is described as follows: concentration-dependent loss of polyQ htt inclusions – imaging, exon1htt(103Q)-mCFP cells, high-content imaging, dose response (AID 486).
On to `CCOC(=O)c1cc2c(=O)n3ccccc3nc2n(CCCOC)c1=NC(=O)C(C)(C)C`, for which the IC50 was > 8 µM (inactive).

For `CN(C)[C@@H]1C(=O)C(C(N)=O)=C(O)[C@@]2(O)C(=O)C3=C(O)c4c(O)cccc4[C@@](C)(O)[C@H]3[C@H](O)[C@@H]12`, the concentration for half-maximal inhibition (IC50) is less than 0.1 µM.

With `Cc1ccccc1-n1c(=O)cc(NCc2ccc3c(c2)OCO3)[nH]c1=O`, the IC50 was > 8 µM (inactive).

`Cc1ccc(O)c(C(=O)c2cc(C#N)c(=O)n(CC3CCCO3)c2)c1` (stereo not drawn): the IC50 was > 8 µM (inactive).

Consider `CCn1c(C(=O)N2CCCC(C(=O)NCCCc3ccccc3)C2)cc2sccc21` (stereo not drawn), for which the IC50 is > 4 µM (inactive).

Consider `CSc1ccccc1NC(=O)c1c(Br)cnn1C`, for which the IC50 is > 8 µM (inactive).

On to `O=C(Nc1cnn(Cc2ccc(Cl)cc2Cl)c1)c1noc2c1CCCC2`, for which the IC50 was > 8 µM (inactive).

With `CCOC(=O)C1=C(C)NC(SC(C)=O)=NC1c1ccc(OC(C)=O)c(OC)c1` (stereo not drawn), the IC50 was > 8 µM (inactive).

As to `O=C(NCc1ccco1)c1ccccc1Nc1ccc(F)cc1`, the IC50 was > 8 µM (inactive).

Turning to `Cn1c(-c2ccc(F)cc2)cnc1SCC(=O)Nc1ccccc1N1CCOCC1`, the IC50 was > 8 µM (inactive).

As for `C=C(C)CSc1nnc(-c2cccc(S(=O)(=O)N(C)C)c2)n1-c1cc(OC)ccc1OC`, the IC50 was > 8 µM (inactive).

With `O=C(Nc1ncnc2sc3c(c12)CCCCC3)c1ccco1`, the IC50 was > 8 µM (inactive).

In the case of `CCOc1cc(C(=O)Nc2ncccn2)cc(OCC)c1OCC`, the IC50 is > 8 µM (inactive).

Turning to `CCOc1ccc(NS(=O)(=O)c2ccc(OCC(=O)N3CCCC3)cc2)cc1`, the IC50 was > 8 µM (inactive).

As for `CCOC(=O)N1CCN(C(=O)c2ccc3c(=O)n(Cc4ccc(OC)cc4)c(=S)[nH]c3c2)CC1`, the IC50 was > 8 µM (inactive).

`O=C(Nc1nccs1)c1ccc(Cl)c(S(=O)(=O)N2CCCCC2)c1`: the IC50 is > 8 µM (inactive).

As to `CC1(C)Cc2ccccc2C(N)=C1C#N`, the IC50 is > 8 µM (inactive).

In the case of `COc1cccc(/C=N/n2c(C)nc3ccccc32)c1OC`, the IC50 is > 8 µM (inactive).

For `CN(C)c1ccc(O)c2c1CC1CC3[C@@H](N(C)C)C(=O)C(C(N)=O)=C(O)[C@]3(O)C(=O)C1=C2O` (stereo partly drawn), the IC50 is less than 0.1 µM.

On to `CCn1ncc(C2=NOC(C(=O)NCc3ccccc3)C2)c1C` (stereo not drawn), for which the IC50 is > 8 µM (inactive).

`CC(OC1=CC(=O)CCC1)C(=O)c1ccccc1` (stereo not drawn): the IC50 was > 8 µM (inactive).

Take `CCN(CC)c1ccc2cc(-c3nc4ccccc4[nH]3)c(=O)oc2c1`: the IC50 was > 8 µM (inactive).

As for `COc1ccc(-c2nc(C#N)c(N3CCOCC3)o2)cc1OC`, the IC50 was > 8 µM (inactive).

`O=C(CSc1nnc(CNC(=O)c2c(F)cccc2Cl)o1)c1ccccc1`: the IC50 was > 8 µM (inactive).

As for `Cc1cc(NC(=O)c2ccc(Cl)cc2)no1`, the IC50 was > 8 µM (inactive).

In the case of `CCOc1cc(C(=O)N2CCN(c3ccccc3)CC2)cc(OCC)c1OCC`, the IC50 is > 8 µM (inactive).

For `C#CC1(O)CC(C)N(C)C(C)C1` (stereo not drawn), the IC50 is > 8 µM (inactive).

On to `CC(C)(C)OC(=O)N1CC=C2C(C#N)=C(N)C(C#N)(C#N)[C@H](c3cccnc3)[C@H]2C1`, for which the IC50 is > 8 µM (inactive).

As for `Cn1cccc1Cc1nnc(SCC(=O)NCC2CCCO2)n1-c1ccc(F)cc1` (stereo not drawn), the IC50 is > 8 µM (inactive).

In the case of `Nc1nonc1NC(=O)CSc1nc2ccccc2s1`, the IC50 is > 8 µM (inactive).

In the case of `O=C(CCN1CCN(c2ccc(F)cc2)CC1)Nc1ccccc1F`, the IC50 was > 8 µM (inactive).

As to `CCOC(=O)C1CCN(c2nc3ccccc3nc2C(C#N)C(=O)OC(C)C)CC1` (stereo not drawn), the IC50 was > 8 µM (inactive).

Consider `O=C1Nc2ccccc2OC1CC(=O)N1CCCC1` (stereo not drawn), for which the IC50 is > 8 µM (inactive).

In the case of `OCCNC1=NCCN1`, the IC50 was > 8 µM (inactive).

`CCn1cc(C(=O)NCCC2=CCCCC2)c(=O)c2cc(S(=O)(=O)N(C)C)ccc21`: the IC50 was > 8 µM (inactive).

As to `COc1ccc(CNc2nc3nc(C)cc(C)n3n2)cc1OC`, the IC50 was > 8 µM (inactive).

For the molecule `COc1cccc(C2C(C(=O)c3ccc(C)o3)=C(O)C(=O)N2CCCN(C)C)c1` (stereo not drawn), the IC50 was > 8 µM (inactive).

For the molecule `COc1ccc(N2CCC(CNS(=O)(=O)c3cccc(C(F)(F)F)c3)C2)cc1` (stereo not drawn), the IC50 was > 8 µM (inactive).

As for `Cc1cc(C)c(C)c(S(=O)(=O)Nc2ccc(O)cc2)c1C`, the IC50 is > 8 µM (inactive).

Consider `COc1ccc(CCNC(=O)c2ccc(N3CCCC3=O)cc2)cc1OC`, for which the IC50 is > 8 µM (inactive).

In the case of `CC(C)(NC(=O)N1CCCC1)c1cccc(C(C)(C)NC(=O)N2CCCC2)c1`, the IC50 was > 8 µM (inactive).

As to `CC(C)(C)NC(=O)CN(Cc1cccs1)C(=O)c1csnn1`, the IC50 is > 8 µM (inactive).

In the case of `COc1ccc(-c2nnc(SCC#N)o2)cc1`, the IC50 was > 8 µM (inactive).

Regarding `COc1ccc(OC)c(C(=O)CSc2nnc(-c3ccc(OC)c(OC)c3)o2)c1`, the IC50 was > 8 µM (inactive).

On to `CCOC(=O)c1sc(NC(=O)c2c(C)nn(Cc3ccccc3)c2C)cc1C`, for which the IC50 is > 8 µM (inactive).

Regarding `O=C(C1COc2ccccc2O1)N1CCCC1` (stereo not drawn), the IC50 was > 8 µM (inactive).

With `O=C(O)CCn1[nH]c(=O)ccc1=O`, the IC50 was > 8 µM (inactive).

On to `Cc1nc(NC2=NCN(CC3CCCO3)CN2)nc2ccccc12` (stereo not drawn), for which the IC50 is > 8 µM (inactive).

On to `Cc1ccc(Nc2nc(N)nc(CN3CCN(Cc4ccc5c(c4)OCO5)CC3)n2)cc1`, for which the IC50 was > 8 µM (inactive).

As to `O=C1NC(=O)C(CC(=O)N(Cc2ccco2)C2(C(=O)NC3CCCC3)CCCCC2)N1` (stereo not drawn), the IC50 was > 8 µM (inactive).

Regarding `COc1ccc(Cc2nnc3n2N=C(c2cc4ccccc4o2)CS3)cc1OC`, the IC50 is > 8 µM (inactive).

As for `COc1ccc(S(=O)(=O)Cc2ccc(C(=O)NCCc3ccc(S(N)(=O)=O)cc3)o2)cc1`, the IC50 was > 8 µM (inactive).

Regarding `COc1cccc(-c2nnc3sc(C4CCCCC4)nn23)c1`, the IC50 is > 4 µM (inactive).

`COc1ccc(NC(=O)CCc2nc(-c3ccccc3F)no2)cc1`: the IC50 is > 8 µM (inactive).

On to `O=C(Nc1ccccc1)N(O)c1ccc(Cl)cc1`, for which the IC50 is > 8 µM (inactive).

As for `Cc1cc(N2CCN(C3CCCC3)CC2)n2c(nc3ccccc32)c1C#N`, the IC50 was > 8 µM (inactive).

As for `Cc1nc(C)n(C(C)CC(=O)O)n1` (stereo not drawn), the IC50 is > 8 µM (inactive).

Turning to `O=C(c1ccc(=O)[nH]c1)N(Cc1ccco1)C1(C(=O)NC2CCCC2)CCCCC1`, the IC50 was > 8 µM (inactive).

`CN(C)C(=O)N1CCC(C(=O)NC2CCCCCCC2)CC1`: the IC50 is > 8 µM (inactive).

Consider `CS(=O)(=O)N1CCN(c2ccccc2NC(=O)c2ccc(-c3ccc(Cl)cc3Cl)o2)CC1`, for which the IC50 is > 8 µM (inactive).

`Cn1c(=O)n(C)c2cc(NC(=O)C(F)(F)F)ccc21`: the IC50 is > 8 µM (inactive).

Turning to `O=c1oc2c3c4c(cc2cc1-c1nc2ccccc2[nH]1)CCCN4CCC3`, the IC50 was > 8 µM (inactive).

In the case of `Nc1cc(-c2ccccc2)ccc1O`, the IC50 was > 8 µM (inactive).

For `Cc1nnc(SC(=O)N2c3ccccc3Sc3ccccc32)s1`, the IC50 was > 8 µM (inactive).

Take `COc1ccccc1-n1c(=O)c2c3c(sc2n2c(SC(C)C)nnc12)CCC3`: the IC50 was > 8 µM (inactive).

Regarding `Cc1c(C(=O)NCc2cccnc2)oc2ccc(S(=O)(=O)N3CCCCC3)cc12`, the IC50 is > 8 µM (inactive).

Turning to `CN(C)[C@@H]1C(=O)C(C(N)=O)=C(O)[C@@]2(O)C(=O)C3=C(O)c4c(O)cccc4[C@@](C)(O)[C@H]3C[C@@H]12`, the 50% inhibitory concentration (IC50) was 0.08 µM.

On to `CCOC(=O)c1sc2ncn(/N=C/N(C)C)c(=O)c2c1C`, for which the IC50 is > 8 µM (inactive).

For the molecule `COc1ccc(CCNC(=O)C2=COCCO2)cc1`, the IC50 is > 8 µM (inactive).

For the molecule `Cc1ncoc1C(=O)Nc1cccc(Cl)c1C`, the IC50 is > 8 µM (inactive).

With `CC(C)CCNC(=O)C(C)N(Cc1ccc(F)cc1)C(=O)c1ccc(CN2CCCCC2)o1` (stereo not drawn), the IC50 is > 8 µM (inactive).

Consider `COC(=O)c1oc2ccc(Br)cc2c1NC(C)=O`, for which the IC50 was > 8 µM (inactive).

Turning to `Cn1c(=O)c2c(nc(NCc3ccc4c(c3)OCO4)n2Cc2ccccc2F)n(C)c1=O`, the IC50 is > 8 µM (inactive).

On to `Cc1ccccc1OCC(O)CN` (stereo not drawn), for which the IC50 is > 8 µM (inactive).

With `Cn1c(=O)oc2cc(S(=O)(=O)NC3CCN(Cc4ccccc4)CC3)ccc21`, the IC50 is > 8 µM (inactive).

For the molecule `Cc1ccc(/C=c2\sc3nc(-c4ccccc4Br)nn3c2=O)o1`, the IC50 was > 8 µM (inactive).

As for `CN(C)[C@@H]1C(=O)C(C(N)=O)=C(O)[C@@]2(O)C(=O)C3=C(O)c4c(O)ccc(Cl)c4[C@@](C)(O)C3C[C@@H]12` (stereo partly drawn), the IC50 is less than 0.01 µM.

As for `COc1ccc(CCNC(=O)CSc2nnc(CNc3ccc(Cl)cc3)o2)cc1OC`, the IC50 was > 8 µM (inactive).

For `Cc1ccccc1NC1=NCCCS1`, the IC50 was > 8 µM (inactive).

`CCCCNC(=O)CSc1nc2ccc(N3CCOCC3)cc2c(=O)n1CCc1ccccc1`: the IC50 was > 8 µM (inactive).

For `CN(C)[C@@H]1C(=O)C(C(N)=O)=C(O)[C@@]2(O)C(=O)C3=C(O)c4c(O)ccc(Cl)c4[C@@H](O)[C@H]3C[C@@H]12`, the half-maximal inhibitory concentration (IC50) was less than 0.01 µM.

As for `O=C(NC1CCCc2ccccc21)c1ccc(CNc2c(N3CCOCC3)c(=O)c2=O)cc1` (stereo not drawn), the IC50 is > 8 µM (inactive).

Take `Cc1cc(C)c(OCC(=O)Nc2cccc(O)c2)cc1C`: the IC50 is > 8 µM (inactive).

In the case of `CCCCc1nccn1CCn1ccnc1CCCC`, the IC50 was > 8 µM (inactive).

On to `COC(=O)c1c(N)nc(C)n1-c1ccc(OC)cc1`, for which the IC50 is > 8 µM (inactive).

For `O=C(CSc1nnc(-c2ccco2)n1-c1ccccc1)N1CCN(C(=O)c2ccco2)CC1`, the IC50 was > 8 µM (inactive).

For `Cc1ccnc(NC(=O)C2CCCN(S(=O)(=O)c3cnc[nH]3)C2)c1` (stereo not drawn), the IC50 was > 8 µM (inactive).

In the case of `CS(=O)(=O)N(CC(=O)NCCSCc1cccc(Cl)c1)c1ccc2c(c1)OCO2`, the IC50 was > 8 µM (inactive).
